Test results as given in patent US20220251105A1, “METHODS OF TREATING A MK2-MEDIATED DISORDER” (Celgene CAR LLC, priority 2019, published 2022).

Columns and labels:
[1] = Phase 1 first in human study, pharmacokinetics; format: in vivo
[2] = single oral dose pharmacokinetics in CD-1 mice; format: in vivo, mouse
Procedure: (§1) In vitro and in vivo studies were conducted to characterize the absorption, PK, distribution, and metabolism of Compound 1. […] Additionally, plasma samples from single dose PK studies in mice and monkeys were evaluated for circulating metabolites.

[3] = single intravenous dose pharmacokinetics in CD-1 mice; format: in vivo, mouse; details: for Vd: read-out: Vdss
Procedure: as §1

[4] = physical form (amorphous/crystalline) in dose formulation vehicle; format: physicochemical
Description: Additionally, the vehicle used in the pivotal studies was changed from 0.5% methyl cellulose (400 cps) and 0.1% Tween 80 to distilled water.

[5] = 28-day repeat-dose oral toxicity study in mice; details: both sexes, Crl:CD1 (ICR), mouse, in vivo; mice, 28 days
Description: (§2) Additionally, toxicokinetic animals received the vehicle or compound in the same manner and dose levels as the main study groups.

Crl:CD1 (ICR) mice = experiment: 28-day repeat-dose oral toxicity study in mice; details: mouse, in vivo
Description: as §2

Monkey/Cynomolgus = experiment: 7-day repeat dose toxicity study in cynomolgus monkeys; format: in vivo; details: monkeys, 25, 75, 250 mg/kg/day
Procedure: In cynomolgus monkeys, a 7-day repeat dose toxicity study was conducted with doses up to 250 mg/kg/day. […] To aid in dose selection for a subsequent pivotal study, an additional study was conducted to determine the maximum feasible dose under optimal feeding conditions in cynomolgus monkeys. […] Dosing monkeys in the fasted state prior to dosing yielded more consistently higher exposures. Therefore, a dose of 375 mg/kg in 0.5% methyl cellulose (400 cps) and 0.1% Tween 80 administered to fasted monkeys was selected for the 14-day repeat-dose phase of the study, and was considered the maximum feasible dose.

CYP3A4/5 = experiment: in vitro assessment of CYP inhibition; format: in vitro ADME, human; details: in vitro assessments
Procedure: as §1

[6] = test system: osteoclast differentiation; experiment: osteoclast differentiation in vitro; format: cell-based
healthy adult subjects = experiment: Phase 1 first in human study, safety and tolerability; format: in vivo
Procedure: The 2 sentinel subjects (chosen according to a randomization scheme) were dosed on Day 1. After at least 24 hours, the safety profile was acceptable to the Investigator (based on, at minimum, adverse events [AEs], concomitant medications and procedures, and any other important clinical observations), and the remainder of the cohort was dosed according to the randomization schedule.
The same total daily dose was then administered for the remainder of the planned treatment schedule (Days 2 to 14, inclusive).
Results. This study was a Phase 1, three-part study with a double-blind, placebo-controlled, single ascending dose (SAD) phase, a double-blind multiple ascending dose (MAD) phase, and an open-label cross-over food effect phase. The study enrolled a total of 97 healthy adult subjects.

[7] = 91-day repeat-dose toxicology study with mice; format: in vivo, mouse; details: mouse, in vivo, 91-day
mice = experiment: 91-day repeat-dose toxicology study with mice; format: in vivo, mouse; details: 750 mg/kg/day
[8] = test system: Imiquimod ear swelling in BALB/c mice; experiment: imiquimod-induced ear swelling model; format: in vivo, mouse
[9] = test system: cytokines and chemokines produced by ankylosing spondylitis patient cells (TNF-α, IL-17A, MCP-1, IL-6); experiment: ex vivo cytokine and chemokine production by ankylosing spondylitis patient cells; format: cell-based, human; details: ankylosing spondylitis patient cells in vitro
[10] = single intravenous dose pharmacokinetics in cynomolgus monkeys; format: in vivo; details: cynomolgus monkey, plasma; for Vd: read-out: Vdss;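 on AUCLST: AUC to the last measurable time point (AUClast)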
Procedure: as §1

in vivo = details: HLA-B27/Huβ2m transgenic, rat, plasma, po
Description: In each disease model, steady-state pharmacokinetics were characterized.

[11] = CD-1, plasma, mouse, female, single oral 15 mg/kg
[12] = CD-1, plasma, mouse, female, single oral 100 mg/kg
[13] = CD-1, plasma, mouse, male, single oral 15 mg/kg
[14] = CD-1, plasma, mouse, male, single oral 100 mg/kg
[15] = CD-1, plasma, mouse, female, single IV 5 mg/kg
[16] = CD-1, plasma, mouse, male, single IV 5 mg/kg
[17] = cynomolgus, monkey, female, single IV 5 mg/kg
[18] = cynomolgus, monkey, male, single IV 5 mg/kg

CCOCc1cnc(Cl)nc1Oc1ccc2c(ccc3sc4c(c32)NC[C@@H](C)NC4=O)n1 [Compound 1]
dose proportionality of Cmax and AUC ([1]; Day 14, multiple daily doses 10 mg to 150 mg): approximately dose-proportional manner
effect of food on PK ([1]; current capsule formulation, fed vs fasted): limited effect
accumulation ([1]; daily dosing for 14 days): limited to no observed accumulation
AUC ([1]; human, in vivo, oral, humans, 150 mg, read-out: observed AUCLST): 1360 ng·h/mL
half-life at 14 days ([1]; human, plasma, oral, Day 14, multiple daily doses 10 mg to 150 mg, read-out: t½, geometric mean): 1.96 to 4.39 h
Tmax at 14 days ([1]; human, plasma, oral, multiple daily doses, 10 mg to 150 mg): 1 to 2.5 h
Tmax ([1]; human, plasma, single oral dose, 3 mg to 400 mg, read-out: median Tmax): 1 to 3 h
half-life ([1]; human, plasma, single oral dose, 3 mg to 400 mg, read-out: terminal elimination half-life (t½), geometric mean): 1.66 to 6.95 h
predicted human bioavailability ([1]; prediction before food effect part): 25%
dose proportionality of Cmax and AUC ([1]; single oral dose, 3 mg to 400 mg): approximately dose proportional manner
AUC [2, 11]: 5170 ng·h/mL
AUC(0-inf) [2, 11]: 5250 ng·h/mL
Cmax [2, 11]: 1980 ng/mL
Tmax ([2]; CD-1, plasma, mouse, female, single oral 15 mg/kg, read-out: tmax): 0.5 h
AUC [2, 12]: 28200 ng·h/mL
AUC(0-inf) [2, 12]: 28400 ng·h/mL
Cmax [2, 12]: 8080 ng/mL
Tmax ([2]; CD-1, plasma, mouse, female, single oral 100 mg/kg, read-out: tmax): 0.25 h
AUC [2, 13]: 2870 ng·h/mL
AUC(0-inf) [2, 13]: 3040 ng·h/mL
Cmax [2, 13]: 1270 ng/mL
Tmax ([2]; CD-1, plasma, mouse, male, single oral 15 mg/kg, read-out: tmax): 0.25 h
AUC [2, 14]: 19200 ng·h/mL
AUC(0-inf) [2, 14]: 19200 ng·h/mL
Cmax [2, 14]: 6600 ng/mL
Tmax ([2]; CD-1, plasma, mouse, male, single oral 100 mg/kg, read-out: tmax): 0.5 h
bioavailability ([2]; both sexes, CD-1, mouse, plasma, po, mice, doses in the range 15 to 375 mg/kg): 22 to 51%
Tmax ([2]; both sexes, CD-1, mouse, plasma, mice, oral dosing, read-out: time to maximum plasma concentration (tmax)): 0.25 to 1 h
F ([2]; mouse, female, single oral 15 mg/kg): 51%
F ([2]; mouse, female, single oral 100 mg/kg): 41%
F ([2]; mouse, male, single oral 15 mg/kg): 23%
F ([2]; mouse, male, single oral 100 mg/kg): 22%
AUC [3, 15]: 3400 ng·h/mL
AUC(0-inf) [3, 15]: 3430 ng·h/mL
clearance [3, 15]: 24.3 mL/min/kg
Vd [3, 15]: 2.49 L/kg
half-life ([3]; CD-1, plasma, mouse, female, single IV 5 mg/kg, read-out: t1/2,z (converted)): 6.6 h
AUC [3, 16]: 4160 ng·h/mL
AUC(0-inf) [3, 16]: 4350 ng·h/mL
clearance [3, 16]: 19.2 mL/min/kg
Vd [3, 16]: 5.08 L/kg
half-life ([3]; CD-1, plasma, mouse, male, single IV 5 mg/kg, read-out: t1/2,z (converted)): 7.3 h
half-life ([3]; both sexes, CD-1, mouse, plasma, iv, 5 mg/kg, mice, read-out: terminal half-life (converted)): ~7 h
systemic clearance as % of liver blood flow ([3]; mice, IV): approximately 25 % of liver blood flow
physical form after dose formulation preparation ([4]; Tween 80 present in the vehicle): changed from an amorphous to a crystalline form, beginning within the first hour
time remaining in the amorphous form ([4]; prepared in distilled water): at least 24 hours
NOAEL at 28 days [5]: 100 mg/kg/day
compound-related findings (Crl:CD1 (ICR) mice; 15 mg/kg/day): no compound-related findings
microscopic finding, skeletal muscle (Crl:CD1 (ICR) mice; 100 mg/kg/day): Minimal to mild myofiber degeneration in the skeletal muscle
adverse effect, heart (Crl:CD1 (ICR) mice; 750 mg/kg/day): Minimal to mild myofiber degeneration in the heart
change in mean absolute reticulocyte count (Crl:CD1 (ICR) mice; 750 mg/kg/day): −29%
change in mean platelet count (Crl:CD1 (ICR) mice; 750 mg/kg/day): +96%
leukocyte counts (non-adverse) (Crl:CD1 (ICR) mice; 750 mg/kg/day): Minimal to mild decreases in lymphocyte counts and inconsistent decreases in most other leukocyte subtypes
microscopic finding, duodenum (Crl:CD1 (ICR) mice; 750 mg/kg/day): Minimal to mild erosion/ulceration of the proximal duodenum
microscopic finding, liver (Crl:CD1 (ICR) mice; 750 mg/kg/day): Centrilobular hepatocellular hypertrophy (typically of minimal severity)
microscopic finding, thymus (Crl:CD1 (ICR) mice; 750 mg/kg/day): Minimal to mild thymic cortical lymphoid depletion
organ weights (non-adverse) (Crl:CD1 (ICR) mice; 750 mg/kg/day): Increased liver and heart weights
Findings, 7 days (Monkey/Cynomolgus): no compound-related findings in any endpoints
inhibition of intestinal CYP3A4/5 (CYP3A4/5): potential for direct and time-dependent inhibition
osteoclast differentiation [6]: inhibit osteoclast differentiation in vitro
most common TEAEs suspected related (skin and subcutaneous tissue disorder) (healthy adult subjects; Part 1, 400-mg dose level, 2 TEAEs in 2 subjects): mild, transient, pruritic, erythematous rash without other organ involvement
severe TEAEs or serious adverse events (healthy adult subjects; Part 1, single doses 3 mg to 400 mg): no severe TEAEs or serious adverse events (SAEs)
TEAEs suspected to be related to Compound 1 (healthy adult subjects; Part 1, single doses 3 mg to 400 mg, of the 22 total TEAEs): 5
ALT elevations, other 2 subjects (healthy adult subjects; Part 2, 120 mg): less than 2 × above the upper limit of normal
peak ALT elevation (healthy adult subjects; Part 2, 120 mg, one subject, Day 17): 2.3 ×ULN
TEAEs suspected to be related to Compound 1 (healthy adult subjects; Part 2, 10 to 150 mg daily for 14 days, of the 42 total TEAEs): 9
subjects with increase in serum transaminase levels (ALT) above ULN (healthy adult subjects; Part 2, 120-mg dose cohort, of 6 subjects on active treatment): 3
transaminase level changes (healthy adult subjects; Part 2, 150-mg dose cohort, 14-day dosing period): no transaminase level changes were observed in any subject
tolerability (healthy adult subjects; single dose up to 400 mg, 14 days up to 150 mg): well tolerated
NOAEL at 91 days [7]: 100 mg/kg/day
finding on which the NOAEL was based (mice): microscopic findings in the heart
% Inhibition by ear thickness clinical score ([8]; 3 mg/kg, from area under the ear thickness-time curve): 57% by ear
Minimally Efficacious Dose ([8]; endpoint ear thickness): 3 mg/kg
production of cytokines and chemokines incl. TNF-α, IL-17A, MCP-1, IL-6 [9]: significantly inhibited
half-life ([10]; both sexes, iv, 5 mg/kg, monkeys, read-out: terminal half-life): ≤ 1 h
AUC [10, 17]: 2200 ng·h/mL
AUC(0-inf) [10, 17]: 2210 ng·h/mL
clearance [10, 17]: 38.3 mL/min/kg
Vd [10, 17]: 1.93 L/kg
half-life ([10]; cynomolgus, monkey, female, single IV 5 mg/kg, read-out: t1/2,z (converted)): 0.98 h
AUC [10, 18]: 1920 ng·h/mL
AUC(0-inf) [10, 18]: 1920 ng·h/mL
clearance [10, 18]: 43.5 mL/min/kg
Vd [10, 18]: 1.81 L/kg
half-life ([10]; cynomolgus, monkey, male, single IV 5 mg/kg, read-out: t1/2,z (converted)): 0.95 h
AUC (in vivo; 20 mg/kg): 2820 ng·h/mL
AUC (in vivo; 100 mg/kg): 7190 ng·h/mL
